US9284321B2, “Piperazino[1,2-a]indol-1-ones and [1,4]diazepino[1,2-a]indol-1-one” (Hoffmann-La Roche Inc., priority 2012, dated 2016)

Legend:
[1] = system: human embryonic stem cell derived neural stem cells (NSCs); assay: Neural Stem Cell Proliferation Assay (neurogenesis assay, ATP levels by CellTiterGlo); assay type: cell-based; settings: 96 h, compound concentration at which 150% activity of control (100%) is reached, NSC proliferation by ATP level after 4 days incubation, dose response 8 μM to 8 nM
Method in brief: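 Human ESC-derived NSCs (dual SMAD inhibition) seeded 4 h before compounds, 11-point 2-fold series 8 μM–8 nM; 4 days at 37 °C, 5% CO2. ATP by CellTiterGlo luminescence as cell-number proxy, response as % of media control (0.25% DMSO); EC150 = concentration giving 150% of control.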

SMILES | melting point | EC (150% of control) [1]
Cc1c2n(c3c(-c4ccc(OC(F)(F)F)cc4)cc(C#N)cc13)CCNC2=O [Example 170, 10-Methyl-1-oxo-6-(4-trifluoromethoxy-phenyl)-1,2,3,4-tetrahydro-pyrazino[1,2-a]indole-8-carbonitrile] | 239 °C | 0.014 µM
N#Cc1cc(-c2ccc(Cl)cc2F)c2c(c1)cc1n2CCNC1=O [Example 174, 6-(4-Chloro-2-fluoro-phenyl)-1-oxo-1,2,3,4-tetrahydro-pyrazino[1,2-a]indole-8-carbonitrile] | 278 °C | 0.019 µM
N#Cc1cc(-c2ccc(Cl)cc2Cl)c2c(c1)cc1n2CCNC1=O [Example 175, 6-(2,4-Dichloro-phenyl)-1-oxo-1,2,3,4-tetrahydro-pyrazino[1,2-a]indole-8-carbonitrile] | 284.5 °C | 0.034 µM
N#Cc1ccc(-c2cc(C#N)cc3cc4n(c23)CCNC4=O)cc1 [Example 176, 6-(4-Cyano-phenyl)-1-oxo-1,2,3,4-tetrahydro-pyrazino[1,2-a]indole-8-carbonitrile] | 363 °C | 0.17 µM
N#Cc1cc(-c2ccnc(F)c2)c2c(c1)cc1n2CCNC1=O [Example 177, 6-(2-Fluoro-pyridin-4-yl)-1-oxo-1,2,3,4-tetrahydro-pyrazino[1,2-a]indole-8-carbonitrile] | 289 °C | 0.68 µM
Cc1c2n(c3c(-c4ccc(F)cc4F)cc(C#N)cc13)CCNC2=O [Example 179, 6-(2,4-Difluoro-phenyl)-10-methyl-1-oxo-1,2,3,4-tetrahydro-pyrazino[1,2-a]indole-8-carbonitrile] | 237 °C | 0.013 µM
Cc1c2n(c3c(-c4ccc(Cl)cc4F)cc(C#N)cc13)CCNC2=O [Example 180, 6-(4-Chloro-2-fluoro-phenyl)-10-methyl-1-oxo-1,2,3,4-tetrahydro-pyrazino[1,2-a]indole-8-carbonitrile] | 270 °C | 0.008 µM
Cc1c2n(c3c(-c4ccc(Cl)s4)cc(F)cc13)CCNC2=O [Example 183, 6-(5-Chloro-thiophen-2-yl)-8-fluoro-10-methyl-3,4-dihydro-2H-pyrazino[1,2-a]indol-1-one] | 185 °C | 0.19 µM
O=C1NCCn2c1c(C(F)(F)F)c1cc(Cl)cc(-c3ccc(Cl)cc3)c12 [Example 187, 8-Chloro-6-(4-chlorophenyl)-10-(trifluoromethyl)-3,4-dihydro-2H-pyrazino[1,2-a]indol-1-one] | 214 °C | 0.088 µM
N#Cc1cc(-c2cc(F)c(F)c(F)c2)c2c(c1)cc1n2CCNC1=O [Example 189, 1-Oxo-6-(3,4,5-trifluorophenyl)-3,4-dihydro-2H-pyrazino[1,2-a]indole-8-carbonitrile] | 304.5 °C | 0.22 µM
N#Cc1cc(-c2ccc(OC(F)(F)F)cc2)c2c(c1)cc1n2CCNC1=O [Example 190, 1-Oxo-6-[4-(trifluoromethoxy)phenyl]-3,4-dihydro-2H-pyrazino[1,2-a]indole-8-carbonitrile] | 311.5 °C | 0.037 µM
CS(=O)(=O)c1ccc(-c2cc(C#N)cc3cc4n(c23)CCNC4=O)cc1 [Example 191, 6-(4-Methylsulfonylphenyl)-1-oxo-3,4-dihydro-2H-pyrazino[1,2-a]indole-8-carbonitrile] | 329 °C | 0.24 µM
N#Cc1cc(-c2ccc(Cl)c(Cl)c2)c2c(c1)cc1n2CCNC1=O [Example 192, 6-(3,4-Dichlorophenyl)-1-oxo-3,4-dihydro-2H-pyrazino[1,2-a]indole-8-carbonitrile] | 330.5 °C | 0.13 µM
N#Cc1cc(-c2cccc(Cl)c2)c2c(c1)cc1n2CCNC1=O [Example 193, 6-(3-Chlorophenyl)-1-oxo-3,4-dihydro-2H-pyrazino[1,2-a]indole-8-carbonitrile] | 241.5 °C | 0.32 µM
N#Cc1cccc(-c2cc(C#N)cc3cc4n(c23)CCNC4=O)c1 [Example 194, 6-(3-Cyanophenyl)-1-oxo-3,4-dihydro-2H-pyrazino[1,2-a]indole-8-carbonitrile] | 253 °C | 1.08 µM
Cc1c2n(c3c(-c4ccc(F)c(F)c4)cc(C#N)cc13)CCCNC2=O [Example 196, 7-(3,4-Difluorophenyl)-11-methyl-1-oxo-2,3,4,5-tetrahydro-[1,4]diazepino[1,2-a]indole-9-carbonitrile] | 278 °C | 0.086 µM
Cc1c2n(c3c(-c4ccc(C#N)cc4)cc(C#N)cc13)CCCNC2=O [Example 200, 7-(4-Cyanophenyl)-11-methyl-1-oxo-2,3,4,5-tetrahydro-[1,4]diazepino[1,2-a]indole-9-carbonitrile] | 314 °C | 0.041 µM

More lines, main results first:

melting point | SMILES | EC (150% of control) [1]
256 °C | Cc1c2n(c3c(-c4ccnc(F)c4)cc(C#N)cc13)CCNC2=O [Example 168, 6-(2-Fluoro-pyridin-4-yl)-10-methyl-1-oxo-1,2,3,4-tetrahydro-pyrazino[1,2-a]indole-8-carbonitrile] | 0.064 µM
272 °C | Cc1c2n(c3c(-c4ccc(F)nc4)cc(C#N)cc13)CCNC2=O [Example 169, 6-(6-Fluoro-pyridin-3-yl)-10-methyl-1-oxo-1,2,3,4-tetrahydro-pyrazino[1,2-a]indole-8-carbonitrile] | 0.066 µM
268 °C | Cc1c2n(c3c(-c4nccs4)cc(F)cc13)CCNC2=O [Example 171, 8-Fluoro-10-methyl-6-thiazol-2-yl-3,4-dihydro-2H-pyrazino[1,2-a]indol-1-one] | 0.36 µM
309 °C | N#Cc1cc(-c2ccc(Cl)c(F)c2)c2c(c1)cc1n2CCNC1=O [Example 172, 6-(4-Chloro-3-fluoro-phenyl)-1-oxo-1,2,3,4-tetrahydro-pyrazino[1,2-a]indole-8-carbonitrile] | 0.045 µM
292 °C | N#Cc1cc(-c2ccc(F)cc2F)c2c(c1)cc1n2CCNC1=O [Example 173, 6-(2,4-Difluoro-phenyl)-1-oxo-1,2,3,4-tetrahydro-pyrazino[1,2-a]indole-8-carbonitrile] | 0.01 µM
260 °C | Cc1c2n(c3c(-c4ccc(Cl)c(F)c4)cc(C#N)cc13)CCNC2=O [Example 178, 6-(4-Chloro-3-fluoro-phenyl)-10-methyl-1-oxo-1,2,3,4-tetrahydro-pyrazino[1,2-a]indole-8-carbonitrile] | 0.048 µM
193 °C | O=C1NCCn2c1c(C(F)(F)F)c1cc(F)cc(-c3ccc(F)cc3)c12 [Example 181, 8-Fluoro-6-(4-fluoro-phenyl)-10-trifluoromethyl-3,4-dihydro-2H-pyrazino[1,2-a]indol-1-one] | 0.62 µM
217 °C | N#Cc1cc(-c2ccc(F)c(F)c2)c2c(c1)c(C(F)(F)F)c1n2CCNC1=O [Example 182, 6-(3,4-Difluoro-phenyl)-1-oxo-10-trifluoromethyl-1,2,3,4-tetrahydro-pyrazino[1,2-a]indole-8-carbonitrile] | 0.29 µM
227 °C | Cc1c2n(c3c(-c4nnc(C(F)(F)F)s4)cc(F)cc13)CCNC2=O [Example 184, 8-Fluoro-10-methyl-6-[5-(trifluoromethyl)-1,3,4-thiadiazol-2-yl]-3,4-dihydro-2H-pyrazino[1,2-a]indol-1-one] | 1.11 µM
249 °C | Cc1c2n(c3c(-c4ccc(C#N)s4)cc(F)cc13)CCNC2=O [Example 185, 5-(8-Fluoro-10-methyl-1-oxo-3,4-dihydro-2H-pyrazino[1,2-a]indol-6-yl)thiophene-2-carbonitrile] | 0.11 µM
263 °C | Cc1c2n(c3c(-c4ncc(C(F)(F)F)s4)cc(F)cc13)CCNC2=O [Example 186, 8-Fluoro-10-methyl-6-[5-(trifluoromethyl)-1,3-thiazol-2-yl]-3,4-dihydro-2H-pyrazino[1,2-a]indol-1-one] | 0.33 µM
236 °C | Cc1c2n(c3c(-c4ccco4)cc(F)cc13)CCNC2=O [Example 188, 8-Fluoro-6-(furan-2-yl)-10-methyl-3,4-dihydro-2H-pyrazino[1,2-a]indol-1-one] | 0.1 µM
279.5 °C | N#Cc1cc(-c2cccc(C(F)(F)F)c2)c2c(c1)cc1n2CCNC1=O [Example 195, 1-Oxo-6-[3-(trifluoromethyl)phenyl]-3,4-dihydro-2H-pyrazino[1,2-a]indole-8-carbonitrile] | 1.4 µM
252 °C | Cc1c2n(c3c(-c4ccc(C(F)(F)F)cc4)cc(C#N)cc13)CCCNC2=O [Example 197, 11-Methyl-1-oxo-7-[4-(trifluoromethyl)phenyl]-2,3,4,5-tetrahydro-[1,4]diazepino[1,2-a]indole-9-carbonitrile] | 0.14 µM
278 °C | Cc1c2n(c3c(-c4ccc(F)cc4)cc(C#N)cc13)CCCNC2=O [Example 198, 7-(4-Fluorophenyl)-11-methyl-1-oxo-2,3,4,5-tetrahydro-[1,4]diazepino[1,2-a]indole-9-carbonitrile] | 0.033 µM
298 °C | Cc1c2n(c3c(-c4ccc(Cl)cc4)cc(C#N)cc13)CCCNC2=O [Example 199, 7-(4-Chlorophenyl)-11-methyl-1-oxo-2,3,4,5-tetrahydro-[1,4]diazepino[1,2-a]indole-9-carbonitrile] | 0.053 µM
